Measurements published in patent US9006394B2, “Peptide-presenting surfaces for long-term culture of pluripotent cells” (Wisconsin Alumni Research Foundation, priority 2008, dated 2015).
Ends that are not written are not given here.

Tests used:
pluripotent stem cells = assay: Number of cell divisions by fluorescent cell staining; assay type: cell-based, human; conditions: listed as GKKQRFRHRNKG
human ESCs (H9) = assay: Cell adhesion (CellTiter-Glo) with soluble heparin or chondroitinase ABC; assay type: cell-based; conditions: 1 hour
Description: To determine the effect of a soluble GAG on hESC binding to GBPs, hESCs were plated onto Matrigel-coated surfaces, vitronectin-coated surfaces, or surfaces presenting the heparin-binding peptide […] (SEQ ID NO: 1) in the presence or absence of soluble heparin (0.5 mg/mL). After 1 hour, the surfaces were washed and the cells lysed. The cell lysates were used to determine approximate cell numbers using Cell Titer Glo (Promega). The ratio of the mean luminescence of the cell lysates of cells plated in the presence of heparin versus those without heparin was expressed as percent cell binding for each surface.
To determine if glycosaminoglycans (GAGs) are required for GBP binding, human ESCs (H9) cultured on Matrigel were dissociated using an enzyme-free, Hanks'-based cell dissociation buffer (Sigma) for 10-15 minutes. Cells were resuspended in DMEM/F12 (Gibco), or DMEM/F12 supplemented with 2 units/mL chondroitinase ABC (Sigma), or 500 ug/mL heparin (Sigma). Cells treated with the GAG-degrading enzymes were incubated for 1 hour in suspension at 37° C. Cell suspensions were seeded onto Matrigel-coated surfaces, recombinant vitronectin-coated surfaces (10 μg/mL, R&D Systems), or SAMs presenting the peptide […] (SEQ ID NO: 1) at a 5% surface density. After 1 hour, surfaces were washed 3 times with PBS and the cells were lysed with M-PER buffer (Thermo Fisher Scientific, Inc., Rockford, Ill.). The cell lysate was mixed with CellTiter-Glo (Promega) to determine the number of viable cells in culture based on the presence of ATP. The luminescence was measured on 20/20^n luminometer (Turner Biosystems, Inc., Sunnyvale Calif.). • Cell Growth: […]

[1] = tested on: hES cells (H9 and H13) and vector-free iPS cells (DF19-9); assay: Cell growth over two passages (Cell Counting Kit-8); assay type: cell-based, human
Description: hESCs (H9) were cultured on Matrigel, vitronectin, polylysine, […] (SEQ ID NO: 1), or KGRGDS (SEQ ID NO: 5) over two passages in mTeSR media supplemented with 5 μm ROCK inhibitor. Cell counts were calculated at each time point using Cell Counting Kit-8 (Dojindo Molecular Technologies, Inc., Rockville, Md.).

For “GKKQRFRHRNRKG (not fully specified (C-terminus); listed as Homo sapiens)”, the “karyotype by standard G banding” value (H9 hESCs) was “karyotypically normal”, the “number of cell divisions” value (pluripotent stem cells) was “superior to polylysine-coated surfaces” and the “adhesion of cells treated with chondroitinase ABC” value (human ESCs (H9); 2 units/mL chondroitinase ABC, 5% surface density) was “decreased adhesion”. The “hESC binding in the presence of soluble heparin” value (human ESCs (H9); soluble heparin 0.5 mg/mL) was “abrogate hESC binding”, the “plating efficiency after 24 hours” value ([1]; 24 hours) was “equivalent” and the “cell numbers after each passage” value ([1]; two passages, mTeSR with ROCK inhibitor) was “Increased cell numbers”.
